Measured values: patent publication US9856279B2 (AGIOS PHARMACEUTICALS, INC, priority 2011, dated 2018)

What was measured:
U87MG cells = test: Cellular assay for IDH1m inhibitors: inhibition of 2-HG production (LC-MS, 48 hours) in U87MG cells; assay type: cell-based; conditions: Homo sapiens, U-87 MG, inhibition of 2-HG production, U87R132H cells; read-out: U87R132H IC50
Method in brief: (§1)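 Each cell line is plated at 5000 cells/well in DMEM with 10% FBS and left overnight at 37 °C. Test compounds are then added for 48 h, after which 2-HG in the medium is determined by LC-MS; IC50 reflects 50% reduction compared with control.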

IDH1 R132H = IDH1 R132H (Homo sapiens, UniProt O75874, R132H); test: Assay for IDH1 R132H inhibitors (NADPH/aKG, resazurin detection); assay type: biochemical; conditions: enzyme assay of Example 12; read-out: IDH1R132H IC50
Method in brief: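 Read-out is resorufin fluorescence (Ex544/Em590) 5 min after adding a 30 μM resazurin detection mix. Before that, mutant enzyme (0.2 μg/ml in its mix) ran 50 min at room temperature with compound, 8 uM NADPH and 2 mM aKG (mix levels) in Tris pH 7.5 with NaCl, MgCl2, BSA.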

HT1080 cells = test: Cellular assay for IDH1m inhibitors: inhibition of 2-HG production (LC-MS, 48 hours) in HT1080 cells; assay type: cell-based; conditions: Homo sapiens, HT-1080; inhibition of 2-HG production, HT1080 cells; read-out: HT1080 IC50
Method in brief: as §1

IDH1 R132H, sequence (O75874 whole entry R132H): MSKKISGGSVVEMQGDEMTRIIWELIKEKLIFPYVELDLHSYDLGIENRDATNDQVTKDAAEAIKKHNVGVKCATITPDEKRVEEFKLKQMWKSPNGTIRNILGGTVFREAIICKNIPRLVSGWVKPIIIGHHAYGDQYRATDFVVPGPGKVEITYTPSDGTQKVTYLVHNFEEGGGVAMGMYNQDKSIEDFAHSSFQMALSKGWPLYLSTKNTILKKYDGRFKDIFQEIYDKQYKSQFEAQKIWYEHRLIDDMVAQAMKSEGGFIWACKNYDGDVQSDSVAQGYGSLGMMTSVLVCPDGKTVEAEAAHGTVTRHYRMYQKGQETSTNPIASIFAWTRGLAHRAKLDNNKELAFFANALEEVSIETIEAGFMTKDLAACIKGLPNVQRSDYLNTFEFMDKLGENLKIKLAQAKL

IC50 (U87MG cells)	IC50 (IDH1 R132H)	IC50 (HT1080 cells)	Compound
< 0.5 µM	< 0.5 µM	< 0.5 µM	C=Cc1cc(-c2c(C3CC3)nc(N3CCN(C(=O)C[C@@H]4CCO4)[C@H](C4CC4)C3)c(C#N)c2C)ccn1 [Compound 761, 2-cyclopropyl-6-((R)-3-cyclopropyl-4-(2-((S)-oxetan-2-yl)acetyl)piperazin-1-yl)-4-methyl-2′-vinyl-3,4′-bipyridine-5-carbonitrile]
< 0.5 µM	< 0.5 µM	< 0.5 µM	C=Cc1cc(Nc2cc(C#N)c(N3CCN(C(=O)CCO)[C@H](C)C3)nc2C2CC2)c2ccncc2n1 [Compound 698, (R)-6-cyclopropyl-2-(4-(3-hydroxypropanoyl)-3-methylpiperazin-1-yl)-5-((2-vinyl-1,7-naphthyridin-4-yl)amino)nicotinonitrile]
0.5 to 1 µM	< 0.5 µM	1 to 10 µM	COCCC(=O)N1CCN(c2nc(C3CC3)c(-c3c(C)noc3C)cc2C#N)C[C@H]1C [Compound 345, (R)-6-cyclopropyl-5-(3,5-dimethyl-isoxazol-4-yl)-2-[4-(3-methoxy-propionyl)-3-methyl-piperazin-1-yl]-nicotinonitrile]
< 0.5 µM	< 0.5 µM	< 0.5 µM	C=Cc1ccnc(Nc2cc(C#N)c(N3CCN(C(=O)CCOC)[C@H](C4CC4)C3)nc2C2CC2)c1 [Compound 706, (R)-6-cyclopropyl-2-(3-cyclopropyl-4-(3-methoxypropanoyl)piperazin-1-yl)-5-((4-vinylpyridin-2-yl)amino)nicotinonitrile]
0.5 to 1 µM	< 0.5 µM	1 to 10 µM	N#Cc1cc(-c2cccc3ncoc23)c(C2CC2)nc1N1CCN(C(=O)C2CC2)[C@H](C2CC2)C1 [Compound 483, (R)-5-(benzo[d]oxazol-7-yl)-2-(4-(cyclopropanecarbonyl)-3-cyclopropylpiperazin-1-yl)-6-cyclopropylnicotinonitrile]
< 0.5 µM	< 0.5 µM	< 0.5 µM	C=Cc1cc(-c2cc(C#N)c(N3CCN(C(=O)CC(F)(F)F)[C@H](C4CC4)C3)nc2C2CC2)ccn1 [Compound 498, (R)-2-cyclopropyl-6-(3-cyclopropyl-4-(3,3,3-trifluoropropanoyl)piperazin-1-yl)-2′-vinyl-3,4′-bipyridine-5-carbonitrile]
< 0.5 µM	< 0.5 µM	0.5 to 1 µM	N#Cc1cc(Nc2ccnc3ccccc23)c(C2CC2)nc1N1CCN(C(=O)C2CC2)[C@H](C2CC2)C1 [Compound 528, (R)-2-(4-(cyclopropanecarbonyl)-3-cyclopropylpiperazin-1-yl)-6-cyclopropyl-5-(quinolin-4-ylamino)nicotinonitrile]
< 0.5 µM	< 0.5 µM	< 0.5 µM	COCCC(=O)N1CCN(c2nc(C3CC3)c(-c3cccc4cnccc34)c(C)c2C#N)C[C@H]1C [Compound 410, 6-cyclopropyl-5-(isoquinolin-5-yl)-2-((R)-4-(3-methoxypropanoyl)-3-methylpiperazin-1-yl)-4-methylnicotinonitrile]
< 0.5 µM	< 0.5 µM	0.5 to 1 µM	COCCC(=O)N1CCN(c2nc(C3CC3)c(-c3ccc(F)c(C#N)c3)c(C)c2C#N)C[C@H]1C [Compound 321, (R)-5-(3-cyano-4-fluoro-phenyl)-6-cyclopropyl-2-[4-(3-methoxy-propionyl)-3-methyl-piperazin-1-yl]-4-methyl-nicotinonitrile]
< 0.5 µM	0.5 to 1 µM	0.5 to 1 µM	C=Cc1nccc(-c2cc(C#N)c(N3CCN(C(=O)C4CC4)[C@H](C4CC4)C3)nc2C2CC2)n1 [Compound 496, (R)-2-(4-(cyclopropanecarbonyl)-3-cyclopropylpiperazin-1-yl)-6-cyclopropyl-5-(2-vinylpyrimidin-4-yl)nicotinonitrile]
1 to 10 µM	< 0.5 µM	1 to 10 µM	CCC(Oc1cc(C#N)c(N2CCN(C(=O)CCOC)[C@H](C)C2)nc1C1CC1)c1ccccc1 (stereo partly drawn) [Compound 308, 6-cyclopropyl-2-((R)-4-(3-methoxypropanoyl)-3-methylpiperazin-1-yl)-5-(1-phenylpropoxy)nicotinonitrile]
< 0.5 µM	< 0.5 µM	< 0.5 µM	C=Cc1cc(-c2c(C3CC3)nc(N3CCN(C(=O)CCO)[C@H](C)C3)c(C#N)c2C)ccn1 [Compound 654, (R)-2-cyclopropyl-6-(4-(3-hydroxypropanoyl)-3-methylpiperazin-1-yl)-4-methyl-2′-vinyl-[3,4′-bipyridine]-5-carbonitrile]
1 to 10 µM	< 0.5 µM	1 to 10 µM	COCCC(=O)N1CCN(c2nc(C3CC3)c(Nc3ccnc4ccccc34)cc2C#N)C[C@H]1C [Compound 356, (R)-6-cyclopropyl-2-(4-(3-methoxypropanoyl)-3-methylpiperazin-1-yl)-5-(quinolin-4-ylamino)nicotinonitrile]
< 0.5 µM	< 0.5 µM	< 0.5 µM	C=Cc1cc(-c2c(C3CC3)nc(N3CCN(C(=O)CCO)[C@H](C4CC4)C3)c(C#N)c2C)cnn1 [Compound 776, (R)-6-cyclopropyl-2-(3-cyclopropyl-4-(3-hydroxypropanoyl)piperazin-1-yl)-4-methyl-5-(6-vinylpyridazin-4-yl)nicotinonitrile]
< 0.5 µM	< 0.5 µM	< 0.5 µM	C=Cc1ccnc(Nc2cc(C#N)c(N3CCN(C(=O)CC4CCCO4)[C@H](C4CC4)C3)nc2C2CC2)c1 (stereo partly drawn) [Compound 813, 6-cyclopropyl-2-((3R)-3-cyclopropyl-4-(2-(tetrahydrofuran-2-yl)acetyl)piperazin-1-yl)-5-((4-vinylpyridin-2-yl)amino)nicotinonitrile]
< 0.5 µM	< 0.5 µM	< 0.5 µM	COCCC(=O)N1CCN(c2nc(C3CC3)c(-c3ccc4nc(N)sc4c3)cc2C#N)C[C@H]1C [Compound 417, (R)-5-(2-amino-benzothiazol-6-yl)-6-cyclopropyl-2-[4-(3-methoxy-propionyl)-3-methyl-piperazin-1-yl]-nicotinonitrile]
< 0.5 µM	< 0.5 µM	< 0.5 µM	C=Cc1cc(-c2cc(C#N)c(N3CCN(C(=O)CCOC)[C@H](C)C3)nc2C2CC2)c2ccccc2n1 [Compound 592, (R)-6-cyclopropyl-2-(4-(3-methoxypropanoyl)-3-methylpiperazin-1-yl)-5-(2-vinylquinolin-4-yl)nicotinonitrile]
1 to 10 µM	< 0.5 µM	1 to 10 µM	COCCC(=O)N1CCN(c2nc(C3CC3)c(-c3cc4ccccc4nc3Cl)cc2C#N)C[C@H]1C [Compound 360, (R)-5-(2-chloro-quinolin-3-yl)-6-cyclopropyl-2-[4-(3-methoxy-propionyl)-3-methyl-piperazin-1-yl]-nicotinonitrile]
< 0.5 µM	< 0.5 µM	< 0.5 µM	C=Cc1cc(-c2c(C3CC3)nc(N3CCN(C(=O)CC4CCC(=O)O4)[C@H](C4CC4)C3)c(C#N)c2C)ccn1 (stereo partly drawn) [Compound 806, 2-cyclopropyl-6-((3R)-3-cyclopropyl-4-(2-(5-oxotetrahydrofuran-2-yl)acetyl)piperazin-1-yl)-4-methyl-2′-vinyl-[3,4′-bipyridine]-5-carbonitrile]
< 0.5 µM	< 0.5 µM	< 0.5 µM	C=CC(=O)Nc1ccc(C(C)Oc2cc(C#N)c(N3CCN(C(=O)CCOC)[C@H](C)C3)nc2C2CC2)cc1 (stereo partly drawn) [Compound 389, N-(4-(1-(5-cyano-2-cyclopropyl-6-((R)-4-(3-methoxypropanoyl)-3-methylpiperazin-1-yl)pyridin-3-yloxy)ethyl)phenyl)acrylamide]
0.5 to 1 µM	< 0.5 µM	1 to 10 µM	COCCC(=O)N1CCN(c2nc(C3CC3)c(-c3cccc(-c4cc[nH]n4)c3)cc2C#N)C[C@H]1C [Compound 363, (R)-6-cyclopropyl-2-[4-(3-methoxy-propionyl)-3-methyl-piperazin-1-yl]-5-[3-(1H-pyrazol-3-yl)-phenyl]-nicotinonitrile]
< 0.5 µM	< 0.5 µM	< 0.5 µM	C=Cc1cc(-c2cc(C#N)c(N3CCN(C(=O)CCO)[C@H](C)C3)nc2C2CC2)c2cccnc2n1 [Compound 625, (R)-6-cyclopropyl-2-(4-(3-hydroxypropanoyl)-3-methylpiperazin-1-yl)-5-(2-vinyl-1,8-naphthyridin-4-yl)nicotinonitrile]
< 0.5 µM	< 0.5 µM	< 0.5 µM	C=Cc1cnnc(-c2c(C3CC3)nc(N3CCN(C(=O)CCO)[C@H](C4CC4)C3)c(C#N)c2C)c1 [Compound 767, (R)-6-cyclopropyl-2-(3-cyclopropyl-4-(3-hydroxypropanoyl)piperazin-1-yl)-4-methyl-5-(5-vinylpyridazin-3-yl)nicotinonitrile]
< 0.5 µM	< 0.5 µM	< 0.5 µM	C=Cc1cnc2c(-c3cc(C#N)c(N4CCN(C(=O)CCO)[C@H](C)C4)nc3C3CC3)cccc2n1 [Compound 618, (R)-6-cyclopropyl-2-(4-(3-hydroxypropanoyl)-3-methylpiperazin-1-yl)-5-(2-vinylquinoxalin-5-yl)nicotinonitrile]
< 0.5 µM	< 0.5 µM	< 0.5 µM	C=Cc1cc(-c2cc(C#N)c(N3CCN(C(=O)CCO)[C@H](C)C3)nc2C2CC2)ccn1 [Compound 500]
